According to paper PMC9555642 (PLoS ONE, 2022):

Key:
HDAC6 = target: T1, HDAC6 (Homo sapiens, UniProt Q9UBN7); assay: HDAC enzymatic activity (Eurofins); format: biochemical; settings: Class IIB; ACY-1083 mean of two separate measurements, Ricolinostat and Tubastatin A one measurement
T1 sequence (Q9UBN7 1-1215): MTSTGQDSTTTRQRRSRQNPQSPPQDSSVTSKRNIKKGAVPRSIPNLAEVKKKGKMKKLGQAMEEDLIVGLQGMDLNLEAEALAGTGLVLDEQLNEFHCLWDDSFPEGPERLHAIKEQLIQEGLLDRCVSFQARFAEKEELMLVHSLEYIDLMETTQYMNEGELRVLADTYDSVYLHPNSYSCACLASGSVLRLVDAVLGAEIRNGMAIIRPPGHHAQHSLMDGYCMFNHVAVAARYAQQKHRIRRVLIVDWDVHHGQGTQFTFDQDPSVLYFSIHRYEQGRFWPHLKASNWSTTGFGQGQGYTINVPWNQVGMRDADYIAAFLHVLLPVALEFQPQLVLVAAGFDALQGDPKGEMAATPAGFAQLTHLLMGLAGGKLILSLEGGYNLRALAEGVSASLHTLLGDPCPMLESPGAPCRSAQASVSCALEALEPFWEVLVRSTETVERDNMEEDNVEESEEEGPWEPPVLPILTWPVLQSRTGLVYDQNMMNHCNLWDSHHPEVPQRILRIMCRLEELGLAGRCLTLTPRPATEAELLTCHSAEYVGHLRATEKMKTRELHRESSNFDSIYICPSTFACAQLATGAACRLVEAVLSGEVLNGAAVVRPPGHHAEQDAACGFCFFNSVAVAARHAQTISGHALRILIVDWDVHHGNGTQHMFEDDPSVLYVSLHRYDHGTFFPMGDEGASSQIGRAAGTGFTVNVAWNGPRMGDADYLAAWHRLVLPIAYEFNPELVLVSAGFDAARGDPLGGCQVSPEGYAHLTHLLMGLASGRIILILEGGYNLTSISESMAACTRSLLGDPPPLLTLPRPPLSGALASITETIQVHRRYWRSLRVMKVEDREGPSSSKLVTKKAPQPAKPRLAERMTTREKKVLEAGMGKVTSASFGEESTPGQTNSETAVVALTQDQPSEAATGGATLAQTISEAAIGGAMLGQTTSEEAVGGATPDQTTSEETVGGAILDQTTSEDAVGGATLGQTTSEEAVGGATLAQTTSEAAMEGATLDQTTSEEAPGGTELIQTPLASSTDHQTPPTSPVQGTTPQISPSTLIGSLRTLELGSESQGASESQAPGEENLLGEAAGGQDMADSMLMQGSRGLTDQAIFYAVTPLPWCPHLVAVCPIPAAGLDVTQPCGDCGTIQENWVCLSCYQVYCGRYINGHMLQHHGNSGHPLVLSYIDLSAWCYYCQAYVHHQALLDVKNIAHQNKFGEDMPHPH

HDAC11 = target: T2, HDAC11 (Homo sapiens, UniProt Q96DB2); assay: HDAC enzymatic activity (Eurofins); format: biochemical; settings: Class IV; ACY-1083 mean of two separate measurements, Ricolinostat and Tubastatin A one measurement
T2 construct: purchased Eurofins Pharma Discovery Services 2663
T2 sequence (Q96DB2 1-347): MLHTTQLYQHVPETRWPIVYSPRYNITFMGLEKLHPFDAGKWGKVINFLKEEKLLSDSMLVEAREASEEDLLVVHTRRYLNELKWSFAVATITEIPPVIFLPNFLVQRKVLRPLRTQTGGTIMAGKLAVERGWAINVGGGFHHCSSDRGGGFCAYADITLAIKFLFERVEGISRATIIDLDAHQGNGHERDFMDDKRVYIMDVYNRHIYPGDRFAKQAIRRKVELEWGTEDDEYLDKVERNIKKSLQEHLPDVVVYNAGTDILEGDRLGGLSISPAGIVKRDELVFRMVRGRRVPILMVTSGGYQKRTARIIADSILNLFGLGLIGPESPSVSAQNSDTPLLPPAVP

[1] = Secondary pharmacology panel of >190 in vitro radioligand binding and enzyme assays; settings: hits: HDAC5, HDAC7, COX2 and DAT
Description: Second pharmacology screening was performed at Eurofins Pharma Discovery Services in a panel of 190 in vitro radioligand binding and enzyme assays covering a diverse set of enzymes, receptors, ion channels, and transporters.

COPD HBEC ALI cultures [2] = assay: TGF-β1 challenge in ALI, FITC-dextran permeability; format: cell-based, human; settings: 10 μM pre-treatment 3 days, TGF-β 0.4, 2 and 10 ng/ml for 48 hours, two COPD donors
Description: The paracellular permeability was determined by using fluorescein isothiocyanate labeled 4kD-dextran (Sigma-Aldrich, St. Louis, USA). 18 hours after addition of 0.2 mg FITC-dextran in 200 μL medium to the apical side of the ALI cultures, the fluorescence in the basolateral medium was measured using PHERAstar FSX (excitation 485 nm and emission 520 nm) (BMG LABTECH, Ortenberg, Germany). The time point was chosen for optimal window in the assays as well as practical reasons and has been kept consistent in between different stimulations throughout this work. Data was plotted as fold-change of 0.1% DMSO control.
Permeability was measured after 48 hours.

Haemophilus influenzae = assay: Pilot test of bactericidal effect, bacteria in media; format: cell-based; settings: bacteria suspended in media incubated for one hour with ACY-1083, pilot experiment
COPD HBEC ALI cultures [3] = assay: AB/PAS staining and quantification of cellular features from IHC sections, TNF challenge; format: cell-based, human
Description: Eight days post-treatment, HBEC ALI-cultures were fixed in 4% paraformaldehyde for fifteen minutes and washed three times in PBS. Dehydration in ethanol and xylene followed by paraffin (Merck, New Jersey, USA) infiltration was done with a short program for biopsies (1 hour 55 minutes) on a Microm STP 120 Spin Tissue Processor (Thermo Fisher Scientific). Cell layers were embedded in paraffin and 4 μm thick sections were made using a Leica RM2165 microtome (Leica, Wetzlar, Germany). Alcian Blue/Periodic Acid-Schiff (AB/PAS) with Haematoxylin staining were performed using standard protocols on a Leica ST5020. After staining, the sections were dehydrated in ethanol and xylene, mounted with Pertex mounting medium (Histolab, Göteborg, Sweden) and scanned with a Aperio Scanscope slide scanner (Leica Biosystems, Buffalo Grove, USA).
IHC images were analyzed in HALO v3.1 (Indica Labs). For all analyses, images were annotated manually to exclude out of focus and damaged areas, and a random forest classifier was applied to intact areas of the sections to detect epithelial areas. All following analyses were done in epithelial areas only. For goblet cell counting, algorithm CytoNuclear 2.0.9 was used to segment cells based on nuclear staining and categorize them as AB/PAS (mucin) positive and negative cells based on cytoplasmic AB staining. Goblet cell counting was represented as the percentage of AB positive cells of total cells.
To measure epithelial thickness, the apical and basal sides of the epithelium in the sections were manually delineated using a pen annotation tool. Distance between paired apical and basal annotations was measured every 10 μm along the epithelium, and recorded in sequence as epithelial thickness.
To measure intraepithelial and intercellular AB staining, algorithm Area Quantification v2.1.7 was used. Two thresholds were applied to capture AB staining: a lower one to detect all AB staining in both goblet cells and intercellular areas, and a higher one to detect the stronger AB staining inside goblet cells only. Intercellular AB area was calculated by subtracting goblet AB staining (higher threshold) from total AB staining (by lower threshold).

In the case of ACY-1083, the IC50 (HDAC6) is reported as under 0.01 µM, the IC50 (HDAC11) is reported as 18.2 µM and the “hits below 10 μM in HDAC isoform panel and secondary pharmacology safety panels” value [1] is reported as 4. For the same substance, the “paracellular permeability after TGF-β challenge” value (COPD HBEC ALI cultures [2]) was “decreased it at all concentrations”, the “bactericidal effect (bacterial counts)” value (Haemophilus influenzae) was “no effect on bacterial counts” and the “intraepithelial and intercellular AB area” value (COPD HBEC ALI cultures [3]; TNF 20 ng/ml + ACY-1083, p<0.0001) was “reduced to the no-TNF level”. For the same substance, the “percentage of goblet cells” value (COPD HBEC ALI cultures [3]; TNF 20 ng/ml + ACY-1083, vs no-TNF DMSO control or TNF DMSO culture) was “increased but did not differ significantly”, the “epithelial thickness variation (variance in height)” value (COPD HBEC ALI cultures [3]; TNF-challenged wells, four donors, p<0.001) was “smaller” and the goblet cell percentage (COPD HBEC ALI cultures [3]; only ACY-1083 vs no-TNF DMSO) was “No difference”.
